Laboratory results published in patent publication US5922707A, “Oxazolidinone antibacterial agent with tricyclic substituents” (Pharmacia & Upjohn Company, priority 1997, dated 1999).

Legend:
Type in all cases: cell-based
[1] = system: Staphylococcus aureus UC ® No. 6685; experiment: In vitro antimicrobial activity, MIC by agar dilution, S. aureus 6685; details: UC6685, Mueller Hinton agar + 1% Supplement C, 35° C., 18 hours, read-out: Minimum inhibitory concentration (MIC), S. a. 6685
Experimental: (§1) Antimicrobial activity was tested in vitro using the procedure described in National Committee for Clinical Laboratory Standards. Methods for dilution antimicrobial susceptibility tests for bacteria that grow aerobically--third edition; Approved Standard. NCCLS Document M7-A3. Villanova, Pa.: NCCLS; 1993. Minimum inhibitory concentration (MIC) values were determined by an agar dilution method (1) in which the test medium was Mueller Hinton agar (MHA; Difco Laboratories, Detroit, Mich.) supplemented with 1% Supplement C (Difco). Serial two-fold dilutions of each compound were prepared using 1.0 ml volumes of sterile distilled water. To each 1.0 ml aliquot was added 9.0 ml of molten agar medium. The drug-supplemented agar was mixed, poured into 15×100 mm petri dishes, and allowed to solidify and dry at room temperature prior to inoculation. The test cultures were grown aerobically overnight at 35° C. on MHA; streptococcal strains were grown on Trypticase Soy Blood Agar Base EH (Difco) supplemented with 5% defibrinated sheep blood (BBL, Becton Dickinson Company, Cockeysville, Md.). Colonies were harvested with a sterile swab, and cell suspensions were prepared in Trypticase Soy Broth (TSB; Becton Dickinson Company) to equal the turbidity of a 0.5 McFarland standard. A 1:19 dilution of the suspension was made in TSB; this diluted suspension constituted the inoculum for the assay. The plates containing the drug-supplemented agar were inoculated with a 0.001 ml drop of the cell suspensions using a Steers replicator (Melrose Machine Shop, Woodlyn, Pa.), yielding approximately 10^4 -10^5 cells per spot. The plates were incubated aerobically at 35° C. for 18 hours and the MIC was read as the lowest concentration of drug that inhibited visible growth of the organism. The growth of a single colony was considered to be negative.

[2] = system: Streptococcus Pneumoniae UC ® No. 9912; experiment: In vitro antimicrobial activity, MIC by agar dilution, S. pneumoniae 9912; details: UC9912, Mueller Hinton agar + 1% Supplement C, 35° C., 18 hours, read-out: Minimum inhibitory concentration (MIC), S. p. 9912
Experimental: as §1

[3] = system: Staphylococcus aureus UC ® No. 9213; experiment: In vitro antimicrobial activity, MIC by agar dilution, S. aureus 9213; details: UC9213, Mueller Hinton agar + 1% Supplement C, 35° C., 18 hours, read-out: Minimum inhibitory concentration (MIC), S. a. 9213
Experimental: as §1

SMILES | MIC [1] [µg/mL] | MIC [2] [µg/mL] | MIC [3] [µg/mL]
CC(=O)NC[C@H]1CN(c2ccc3c(c2)OCC2CN(C(=O)COCc4ccccc4)CCN32)C(=O)O1 (stereo partly drawn) [Example 2, N-[[3-[1,2,3,4,4a, 5-Hexahydro-3-[(phenylmethoxy)acetyl]pyrazino[2,1-c] [1, 4]benzoxazin-8-yl]-2-oxo-5-(S)-oxazolidinyl]methyl]-acetamide] | 8 | 2 | 8
CC(=O)NC[C@H]1CN(c2ccc3c(c2)OCC2CN(C(=O)c4cc5ccccc5[nH]4)CCN32)C(=O)O1 (stereo partly drawn) [Example 6, N-[[3-[1,2,3,4,4a, 5-hexahydro-3-(1 H-indol-2-ylcarbonyl)pyrazino[2,1-c] [1, 4]benzoxazin-8-yl]-2-oxo-5-(S)-oxazolidinyl]methyl]-acetamide] | 4 | 1 | 8
COC(=O)N1CCN2c3ccc(N4C[C@H](CNC(C)=O)OC4=O)cc3OC[C@H]2C1 [Example 8a, (R)-8-[5-(S)-[(acetylamino)methyl]-2-oxo-3-oxazolidinyl]-1,2,4a, 5-tetrahydropyrazino[2,1-c] [1, 4]benzoxazine-3(4 H)-carboxylic acid methyl ester] | 4 | 0.5 | 4
COC(=O)N1CCN2c3ccc(N4C[C@H](CNC(C)=O)OC4=O)cc3OCC2C1 (stereo partly drawn) [Example 3, 8-[5-(S)-[(Acetylamino)methyl]-2-oxo-3-oxazolidinyl]-1,2,4a, 5-tetrahydropyrazino[2,1-c] [1, 4]benzoxazine-3(4 H)-carboxylic acid methyl ester] | 4 | 1 | 8
CC(=O)NC[C@H]1CN(c2ccc3c(c2)OC[C@H]2CN(C(=O)OCc4ccccc4)CCN32)C(=O)O1 [Example 7a, (R)-8-[5-(S)-[(acetylamino)methyl]-2-oxo-3-oxazolidinyl]-1,2,4a, 5-tetrahydropyrazino[2,1-c][1,4]benzoxazin-3(4 H)-carboxylic acid phenylmethyl ester] | 4 | 1 | 8
CC(=O)NC[C@H]1CN(c2ccc3c(c2)OCC2CN(C(=O)CO)CCN32)C(=O)O1 (stereo partly drawn) [Example 4] | 8 | 1 | 8
COC(=O)N1CCN2c3ccc(N4C[C@H](CNC(C)=O)OC4=O)cc3OC[C@@H]2C1 [Example 8b, (S)-8-[5-(S)-[(acetylamino)methyl]-2-oxo-3-oxazolidinyl]-1,2,4a, 5-tetrahydropyrazino[2,1-c] [1, 4]benzoxazine-3(4 H)-carboxylic acid methyl ester] | 8 | 2 | 8
CC(=O)NC[C@H]1CN(c2ccc3c(c2)OCC2CN(C(=O)c4ccno4)CCN32)C(=O)O1 (stereo partly drawn) [Example 5, N-[[3-[1,2,3,4,4a, 5-Hexahydro-3-(5-isoxazolylcarbonyl)pyrazino[2,1-c] [1, 4]benzoxazin-8-yl]-2-oxo-5-(S)-oxazolidinyl]methyl]-acetamide] | 2 | < 0.5 | 4
CC(=O)NC[C@H]1CN(c2ccc3c(c2)OCC2CN(C(=O)OCc4ccccc4)CCN32)C(=O)O1 (stereo partly drawn) [Example 1, 8-[5-(S)-[(acetylamino)methyl]-2-oxo-3-oxazolidinyl]-1,2,4a, 5-tetrahydropyrazino[2,1-c] [1, 4]benzoxazine-3(4 H)-carboxylic acid phenylmethyl ester] | 4 | 1 | 8
CC(=O)NC[C@H]1CN(c2ccc3c(c2)OC[C@H]2CCCCN32)C(=O)O1 [Example 9a, (R)-N-[[[1,2,3,4,4a, 5-hexahydropyridino[2,1-c][1, 4]benzoxazin-8-yl]-2-oxo-5-(S)-oxazolidinyl]methyl]-acetamide] | 8 | 2 | 16
CC(=O)NC[C@H]1CN(c2ccc3c(c2)OC[C@@H]2CCCCN32)C(=O)O1 [Example 9b, (S)-N-[[[1,2,3,4,4a, 5-hexahydropyridino[2,1-c][1, 4]benzoxazin-8-yl]-2-oxo-5-(S)-oxazolidinyl]methyl]-acetamide] | 4 | 2 | 8
CC(=O)NC[C@H]1CN(c2ccc3c(c2)OC[C@@H]2CN(C(=O)OCc4ccccc4)CCN32)C(=O)O1 [Example 7b, (S)-8-[5-(S)-[(acetylamino)methyl]-2-oxo-3-oxazolidinyl]-1,2,4a, 5-tetrahydropyrazino[2,1-c][1,4]benzoxazin-3(4H)-carboxylic acid phenylmethyl ester] | 8 | 2 | 8
